Test results from the supplement of paper PMC10307832.

Experiments:
Assay in all cases: relative viability (nuclei count vs DMSO), 5 days (fraction); higher = more cells survive
[1] = compound: CC(C)S(=O)(=O)C1=CC=CC=C1NC2=NC(=NC(=C2Cl)N)NC3=C(C=C(C=C3)N4CCC(CC4)C(=O)N)OC [HG-5-88-01]
Summary of the method: (§1)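 Viability here means nuclei in treated wells divided by nuclei in vehicle wells, reported as the median across plates. Only plates with control CV below 25% and at least one doubling passed. Lung cancer cell lines in 1536-well plates were exposed to five √10-spaced library-drug doses for 5 days and counted from 4× Hoechst images in MetaXpress.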

[2] = compound: CCCCCCCCCCCC1=C(O)C(=O)C=C(O)C1=O [Embelin]
Summary of the method: as §1

[3] = compound: C[C@@H]1CN(CC(=O)Nc2ccc3c(c2)Cc2cccc(-c4cc(=O)cc(N5CCOCC5)o4)c2S3)C[C@H](C)O1
Summary of the method: as §1

[4] = compound: CC(C)Oc1cc(Nc2nc(N[C@@H](C)c3ccc(F)cn3)ncc2Cl)n[nH]1 [AZ23]
Summary of the method: as §1

[5] = compound: Clc1ccc(Nc2nnc(Cc3ccncc3)c3ccccc23)cc1 [Vatalanib]
Summary of the method: as §1

Row | Cell Line | relative viability ([1]; 0.04 µM) | relative viability ([1]; 0.1265 µM) | relative viability ([1]; 0.4 µM) | relative viability ([1]; 1.265 µM) | relative viability ([1]; 4 µM) | relative viability ([2]; 0.08 µM) | relative viability ([2]; 0.8 µM) | relative viability ([2]; 2.53 µM) | relative viability ([2]; 8 µM) | relative viability ([3]; 0.04 µM) | relative viability ([3]; 0.1265 µM) | relative viability ([3]; 0.4 µM) | relative viability ([3]; 4 µM) | relative viability ([4]; 0.01 µM) | relative viability ([4]; 0.03162 µM) | relative viability ([4]; 0.3162 µM) | relative viability ([5]; 0.04 µM) | relative viability ([5]; 0.1265 µM) | relative viability ([5]; 0.4 µM) | relative viability ([5]; 1.265 µM) | relative viability ([5]; 4 µM)
1 | NCI-H1915 | 1.03 | 1.06 | 1.01 | 1.13 | 0.745 | 1.08 | 1.07 | 1.04 | 0.983 | 0.966 | 0.985 | 1.01 | 0.748 | 1.1 | 1.06 | 1.01 | 1.05 | 0.943 | 1.01 | 0.981 | 0.992
2 | NCI-H1944 | 0.988 | 1.01 | 0.913 | 0.972 | 0.902 | 1 | 1.07 | 1.06 | 0.961 |  | 0.958 | 1.03 | 0.952 | 0.971 | 1.13 | 1.05 | 0.987 | 0.848 | 1.1 | 1.01 | 0.907
3 | NCI-H1975 | 0.951 | 0.972 | 0.835 | 0.844 | 0.454 | 1.03 | 0.959 | 0.94 | 1.04 | 0.932 | 0.901 | 0.935 | 0.738 | 1.13 | 1.09 | 0.971 | 0.972 | 0.919 | 1.01 | 0.787 | 0.841
4 | NCI-H1993 | 0.879 | 0.998 | 0.9 | 0.611 | 0.861 | 1.05 | 0.888 | 1.05 | 0.843 | 1.07 | 0.96 | 0.761 | 0.938 | 0.926 | 0.834 | 0.991 | 0.818 | 0.871 | 0.923 | 0.748 | 0.815
5 | NCI-H2009 | 1.05 | 1.07 | 0.931 | 0.951 | 0.947 | 1.01 | 1.19 | 0.959 | 1 | 1.05 | 1.01 | 0.935 | 0.766 | 1.01 | 1.1 | 1.09 | 1.15 | 0.928 | 1.1 | 0.952 | 0.98
6 | NCI-H2023 | 1.04 | 0.958 | 0.795 | 0.725 | 0.633 | 1 | 0.926 | 1.07 | 0.736 | 1.04 | 0.937 | 0.773 | 0.681 |  | 1.11 | 1.13 | 1.02 | 0.88 | 1.12 | 0.893 | 0.933
7 | NCI-H2085 | 1.05 | 1.07 | 1.02 | 0.972 | 1.01 | 0.985 | 1.05 | 1.07 | 0.992 | 0.957 | 1.02 | 0.977 | 0.834 | 1.11 | 1.05 | 0.961 | 0.997 | 0.953 | 0.975 | 0.92 | 0.931
8 | NCI-H2087 | 1.16 | 0.989 | 0.916 | 1.07 | 0.746 | 1.01 | 1.22 | 1.27 | 1.05 | 1.15 | 0.912 | 1.1 | 0.948 | 1.24 | 1.21 | 0.963 | 1.18 | 0.928 | 1.08 | 0.889 | 1.09
9 | NCI-H2126 | 0.905 | 0.989 | 0.923 | 0.904 | 0.88 | 1.03 | 0.991 | 1.03 | 0.934 | 1.01 | 0.979 | 1 | 0.909 | 1.05 | 1.02 | 0.991 | 0.983 | 1 | 1.03 | 0.945 | 0.925
10 | NCI-H2170 | 0.977 | 1.02 | 0.899 | 0.706 | 1.01 | 0.981 | 1.01 | 1.09 | 0.919 | 0.989 | 0.997 | 0.985 | 0.888 | 1.07 | 0.977 | 1.2 | 1.03 | 0.979 | 0.997 | 0.987 | 0.944
11 | NCI-H2228 | 0.725 | 0.588 | 0.371 | 0.3 | 0.345 | 1 | 0.946 | 1.08 | 1.02 | 0.941 | 0.937 | 0.909 | 0.625 | 1.16 | 1.1 | 0.868 | 0.988 | 0.902 | 1.15 | 1.09 | 0.975
12 | NCI-H2342 | 0.759 | 1.1 | 0.93 | 0.728 | 1.05 | 0.894 | 1.02 | 1.15 | 0.898 | 1.01 | 0.847 | 0.83 | 0.786 | 0.993 | 0.942 | 1.02 | 1 | 0.913 | 0.97 | 1.03 | 0.975
13 | NCI-H2347 | 1.04 | 1.02 | 1.07 | 0.94 | 1.01 | 0.987 | 1.09 | 1.09 | 1.03 | 1.1 | 1.08 | 1.08 | 0.981 | 1.12 | 1.16 | 0.997 | 1.09 | 1.01 | 1.02 | 0.961 | 0.938
14 | NCI-H2405 | 1.03 | 1 | 0.925 | 0.802 | 0.901 | 1.09 | 1.09 | 0.993 | 0.921 | 1.09 | 1.05 | 0.972 | 0.983 | 0.982 | 1.09 | 0.911 | 1.01 | 0.919 | 0.732 | 0.919 | 0.946
15 | NCI-H3122 | 0.865 | 0.585 | 0.254 | 0.236 | 0.169 | 0.986 | 1.05 | 1.01 | 1.07 | 1.05 | 0.993 | 1.03 | 0.883 | 1.12 | 1.13 | 1.06 | 1.01 | 0.975 | 1.02 | 0.959 | 0.98
16 | PC-3 [JPC-3] | 1.08 | 1.05 | 0.998 | 0.749 | 0.477 | 1.08 | 1.05 | 1.11 | 0.974 | 0.976 | 1.01 | 1.03 | 0.986 | 1.08 | 1.12 | 1.04 | 0.974 | 0.984 | 1 | 1.01 | 0.988
17 | PC-14 | 1.05 | 0.985 | 0.901 | 0.735 | 0.38 | 0.997 | 1.15 | 1 | 1.06 | 1 | 0.943 | 1.02 | 0.863 | 0.748 | 1.22 | 1.08 | 1.01 | 0.921 | 0.905 | 0.904 | 0.958
18 | RERF-LC-KJ | 1.05 | 0.992 | 0.975 | 0.865 | 0.724 | 0.978 | 1.01 | 1.07 | 1 | 1.01 | 1.01 | 0.962 | 0.872 | 1.08 | 0.987 | 1.03 | 1.02 | 0.961 | 1.04 | 0.857 | 0.857
19 | SK-LU-1 | 0.982 | 1.04 | 0.998 | 0.876 | 0.708 | 1.13 | 1.19 | 1.26 | 0.928 | 1.04 | 1.04 | 1.1 | 0.853 |  | 1.14 | 1.08 | 1.09 | 0.993 | 1.14 | 1.04 | 1.05
20 | SK-MES-1 | 0.983 | 0.962 | 0.966 | 0.924 | 1.05 | 1.02 | 1.07 | 1.13 | 0.954 | 1.09 | 1.05 | 0.923 | 0.8 | 0.745 | 1.08 | 1.08 | 1.03 | 0.913 | 1.09 | 0.971 | 0.893
21 | SW 900 | 0.901 | 0.881 | 0.86 | 0.888 | 0.497 | 0.866 | 0.954 | 1.01 | 0.581 | 0.854 | 0.899 | 0.954 | 0.708 | 0.764 | 0.635 | 0.883 | 0.698 | 0.807 | 1.07 | 0.737 | 1.03
22 | SW 1573 | 0.962 | 0.978 | 0.969 | 0.834 | 0.864 | 0.972 | 1.33 | 1.16 | 1.02 | 0.992 | 1.04 | 0.922 | 1.06 | 1.15 | 1.16 | 0.881 | 0.957 | 0.995 | 1.19 | 0.868 | 1.03
23 | UMC-11 | 0.887 | 1.02 | 0.843 | 0.943 | 0.807 | 0.987 | 1.07 | 1.02 | 0.974 | 0.969 | 0.938 | 1.01 | 0.865 | 0.954 | 1.01 | 0.968 | 1 | 0.953 | 0.954 | 0.984 | 1.03
